Data on six compounds can be found in patent US20120122860A1, “SOLID FORMS OF SULFONAMIDES AND AMINO ACIDS” (Plexxikon, Inc., priority 2009, published 2012).

The IC50 is the midpoint of a concentration-inhibition curve.

A short description of data set [1]: Polymorph stability of P-1167 forms 1 and 2. The data set is classed as physicochemical. As to conditions: P-1167 form 1 versus form 2. The source says: Propane-1-sulfonic acid {3-[5-(4-chloro-phenyl)-1H-pyrrolo[2,3-b]pyridine-3-carbonyl]-2,4-difluoro-phenyl}-amide (P-1167) may be prepared according to methods known in the art, for example, using methods described in U.S. patent application Ser. No. 11/473,347 (see also, PCT publication WO2007002433), the disclosure of which is hereby incorporated by reference. Compound P-1167 can exist in polymorphic forms, for example as polymorphic forms 1 or 2, where such polymorphic forms may be isolated as the substantially pure polymorph. The desired polymorphic form may be prepared, for example, by using appropriate crystallization conditions. For example, Form 1 was isolated by recrystallization from acetone/absolute ethanol (e.g. 1:1 to 5:1, preferably 2:1 by volume). […] The substantially pure isolated polymorphic forms were characterized by X-Ray Powder Diffraction (XRPD), differential scanning calorimetry (DSC) and infrared spectroscopy.

Another data set deals with PI3Kδ (Homo sapiens, UniProt O00329). The data set can be described thus: Kinase activity assay, PI3Kδ.
The target in a further data set is Kdr (Homo sapiens, UniProt P35968). Nature of the data set: Kinase activity assay, Kdr.
The next data set has as its target PI3Kα (Homo sapiens, UniProt P42336). Nature of the data set: Kinase activity assay, PI3Kα.
The target in a further data set is B-Raf V600E (Homo sapiens, UniProt P15056, V600E). The data set can be described thus: Kinase activity assay, B-Raf V600E. The data set is classed as biochemical. Conditions: read-out: activity toward kinase B-Raf V600E, IC50.
Another data set addresses Kit (Homo sapiens, UniProt P10721). Nature of the data set: Kinase activity assay, Kit.
In the next data set the target is Src (Homo sapiens, UniProt P12931). Nature of the data set: Kinase activity assay, Src.
The next data set has as its target Fms (Homo sapiens, UniProt P07333). The data set can be described thus: Kinase activity assay, Fms.
A further data set addresses PI3Kγ (Homo sapiens, UniProt P48736). The data set can be described thus: Kinase activity assay, PI3Kγ.
For the next data set, the target named is B-Raf (Homo sapiens, UniProt P15056). The data set can be described thus: Kinase activity assay, B-Raf. The class given is biochemical. Conditions: read-out: activity toward kinase B-Raf, IC50.
The target in another data set is MAP4K4 (Homo sapiens, UniProt O95819). Nature of the data set: Kinase activity assay, MAP4K4.
The next data set concerns the target T1, A-Raf (Homo sapiens, UniProt P10398).
T1 sequence (P10398 1-606): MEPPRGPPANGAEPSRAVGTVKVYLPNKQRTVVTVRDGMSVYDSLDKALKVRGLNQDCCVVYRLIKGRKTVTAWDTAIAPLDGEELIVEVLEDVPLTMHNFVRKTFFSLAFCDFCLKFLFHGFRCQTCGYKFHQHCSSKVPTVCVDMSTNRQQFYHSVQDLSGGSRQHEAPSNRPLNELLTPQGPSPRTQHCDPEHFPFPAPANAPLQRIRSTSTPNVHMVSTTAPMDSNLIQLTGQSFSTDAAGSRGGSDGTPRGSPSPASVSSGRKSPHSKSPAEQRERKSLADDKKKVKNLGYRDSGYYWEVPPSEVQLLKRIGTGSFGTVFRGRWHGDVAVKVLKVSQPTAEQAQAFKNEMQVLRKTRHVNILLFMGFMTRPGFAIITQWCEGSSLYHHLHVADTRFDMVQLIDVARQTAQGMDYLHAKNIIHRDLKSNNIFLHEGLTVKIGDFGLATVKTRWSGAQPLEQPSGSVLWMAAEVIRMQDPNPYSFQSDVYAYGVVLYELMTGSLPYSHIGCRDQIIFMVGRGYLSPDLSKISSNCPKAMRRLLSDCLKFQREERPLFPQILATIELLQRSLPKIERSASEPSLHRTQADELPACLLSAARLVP
Nature of the data set: Kinase activity assay, A-Raf.

A further data set addresses C-Raf (Homo sapiens, UniProt P04049). The data set can be described thus: Kinase activity assay, C-Raf.
The target in a further data set is TrkA (Homo sapiens, UniProt P04629). Nature of the data set: Kinase activity assay, TrkA.
Data set [2] is described as follows: Intrinsic dissolution rate in simulated intestinal fluid (SIF). The data set is classed as physicochemical. As to conditions: pellet, 310 nm, versus form 2 polymorph free base. The protocol:
(§1) The intrinsic dissolution rate of a similarly prepared substantially amorphous arginine complex of P-1167 was compared to that of the form 2 polymorph in simulated gastric fluid (SGF) without enzyme and in simulated intestinal fluid (SIF). A pellet of test sample was dissolved in the appropriate fluid, and the UV absorbance as a function of time was measured at 254 nm (SGF) or 310 nm (SIF) and plotted. […] As such, significant improvement of dissolution of the arginine complex is shown, which is likely to be improved further by processing the complex to a completely amorphous form.

Data set [3] can be described thus: Intrinsic dissolution rate in simulated gastric fluid (SGF) without enzyme. The class given is physicochemical. As to conditions: pellet, 254 nm. The protocol: as §1

Sequence of Kdr (P35968 20-1356): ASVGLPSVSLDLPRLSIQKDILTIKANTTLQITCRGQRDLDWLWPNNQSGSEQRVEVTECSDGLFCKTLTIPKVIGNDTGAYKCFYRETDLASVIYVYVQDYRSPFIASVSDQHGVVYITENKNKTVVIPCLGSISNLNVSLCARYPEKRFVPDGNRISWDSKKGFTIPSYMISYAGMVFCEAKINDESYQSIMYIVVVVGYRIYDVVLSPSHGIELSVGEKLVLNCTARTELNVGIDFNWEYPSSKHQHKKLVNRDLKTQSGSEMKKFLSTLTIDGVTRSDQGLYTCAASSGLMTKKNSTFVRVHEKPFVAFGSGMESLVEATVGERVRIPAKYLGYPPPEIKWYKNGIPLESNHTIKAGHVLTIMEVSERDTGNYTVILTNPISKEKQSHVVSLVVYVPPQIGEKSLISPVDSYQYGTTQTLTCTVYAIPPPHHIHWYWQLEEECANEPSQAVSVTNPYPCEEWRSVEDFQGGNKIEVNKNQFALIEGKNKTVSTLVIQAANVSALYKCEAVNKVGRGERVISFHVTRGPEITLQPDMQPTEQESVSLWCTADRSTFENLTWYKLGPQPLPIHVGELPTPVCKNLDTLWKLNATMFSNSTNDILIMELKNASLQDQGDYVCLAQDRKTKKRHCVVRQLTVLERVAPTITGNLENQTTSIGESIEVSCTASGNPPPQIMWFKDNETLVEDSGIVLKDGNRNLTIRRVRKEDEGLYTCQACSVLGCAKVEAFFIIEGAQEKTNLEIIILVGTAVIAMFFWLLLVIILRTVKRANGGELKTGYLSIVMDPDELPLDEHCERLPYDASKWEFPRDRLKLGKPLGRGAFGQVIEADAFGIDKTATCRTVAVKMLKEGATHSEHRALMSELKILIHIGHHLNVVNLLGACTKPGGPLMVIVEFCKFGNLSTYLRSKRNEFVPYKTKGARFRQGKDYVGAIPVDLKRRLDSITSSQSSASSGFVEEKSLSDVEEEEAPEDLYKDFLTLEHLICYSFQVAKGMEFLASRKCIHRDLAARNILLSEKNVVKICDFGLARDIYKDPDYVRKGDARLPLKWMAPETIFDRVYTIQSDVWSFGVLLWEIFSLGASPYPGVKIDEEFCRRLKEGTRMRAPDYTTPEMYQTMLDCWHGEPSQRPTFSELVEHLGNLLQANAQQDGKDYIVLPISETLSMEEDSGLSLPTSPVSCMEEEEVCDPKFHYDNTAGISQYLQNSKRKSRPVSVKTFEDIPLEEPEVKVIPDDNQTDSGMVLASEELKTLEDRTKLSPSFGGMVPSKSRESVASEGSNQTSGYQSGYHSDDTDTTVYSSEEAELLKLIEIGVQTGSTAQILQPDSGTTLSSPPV
Sequence of PI3Kα (P42336 whole entry): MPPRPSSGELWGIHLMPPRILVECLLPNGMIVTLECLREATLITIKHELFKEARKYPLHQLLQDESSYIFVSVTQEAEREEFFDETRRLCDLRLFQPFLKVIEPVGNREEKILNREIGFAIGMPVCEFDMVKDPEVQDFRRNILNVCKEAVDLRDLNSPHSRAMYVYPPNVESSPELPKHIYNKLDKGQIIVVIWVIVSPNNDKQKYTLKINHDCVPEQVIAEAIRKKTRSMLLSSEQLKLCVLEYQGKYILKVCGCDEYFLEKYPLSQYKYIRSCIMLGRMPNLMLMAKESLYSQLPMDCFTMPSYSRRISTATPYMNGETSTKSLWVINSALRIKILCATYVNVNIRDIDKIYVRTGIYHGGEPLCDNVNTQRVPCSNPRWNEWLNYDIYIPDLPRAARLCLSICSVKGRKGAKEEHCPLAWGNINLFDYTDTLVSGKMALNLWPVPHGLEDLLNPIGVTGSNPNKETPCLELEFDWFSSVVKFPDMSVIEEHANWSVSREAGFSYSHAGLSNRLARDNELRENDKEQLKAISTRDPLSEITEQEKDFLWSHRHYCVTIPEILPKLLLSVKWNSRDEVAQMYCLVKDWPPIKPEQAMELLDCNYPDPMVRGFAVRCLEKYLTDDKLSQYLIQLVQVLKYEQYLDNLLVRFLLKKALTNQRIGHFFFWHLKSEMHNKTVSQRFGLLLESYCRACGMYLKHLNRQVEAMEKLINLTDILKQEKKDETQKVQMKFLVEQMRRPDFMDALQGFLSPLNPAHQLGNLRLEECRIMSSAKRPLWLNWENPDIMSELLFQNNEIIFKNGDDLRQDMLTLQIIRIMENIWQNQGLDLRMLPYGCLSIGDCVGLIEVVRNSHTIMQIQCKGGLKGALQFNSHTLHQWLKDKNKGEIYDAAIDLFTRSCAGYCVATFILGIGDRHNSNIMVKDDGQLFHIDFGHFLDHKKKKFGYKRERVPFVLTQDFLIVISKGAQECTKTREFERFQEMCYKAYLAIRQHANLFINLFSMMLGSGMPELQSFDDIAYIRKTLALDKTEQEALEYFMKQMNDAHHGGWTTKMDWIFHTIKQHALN
Sequence of PI3Kα (P27986 whole entry partner): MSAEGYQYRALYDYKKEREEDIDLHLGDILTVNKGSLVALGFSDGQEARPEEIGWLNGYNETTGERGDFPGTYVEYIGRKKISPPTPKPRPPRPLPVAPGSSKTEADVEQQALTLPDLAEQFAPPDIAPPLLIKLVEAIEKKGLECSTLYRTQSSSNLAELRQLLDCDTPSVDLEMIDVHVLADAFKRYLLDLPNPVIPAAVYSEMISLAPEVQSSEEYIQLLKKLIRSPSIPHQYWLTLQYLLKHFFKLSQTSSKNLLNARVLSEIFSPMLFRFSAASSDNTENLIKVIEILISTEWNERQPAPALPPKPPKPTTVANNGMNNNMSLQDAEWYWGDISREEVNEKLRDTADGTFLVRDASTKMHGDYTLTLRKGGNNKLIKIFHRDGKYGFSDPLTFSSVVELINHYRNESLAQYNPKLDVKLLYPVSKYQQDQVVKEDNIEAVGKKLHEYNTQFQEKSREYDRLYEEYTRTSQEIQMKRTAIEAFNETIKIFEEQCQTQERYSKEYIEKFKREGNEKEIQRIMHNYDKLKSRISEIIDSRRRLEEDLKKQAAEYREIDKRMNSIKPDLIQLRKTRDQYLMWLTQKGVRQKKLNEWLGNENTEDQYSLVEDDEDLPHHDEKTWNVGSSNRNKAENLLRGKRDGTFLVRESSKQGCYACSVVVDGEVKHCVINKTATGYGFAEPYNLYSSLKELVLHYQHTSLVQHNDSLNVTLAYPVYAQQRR
Sequence of B-Raf V600E (P15056 whole entry V600E): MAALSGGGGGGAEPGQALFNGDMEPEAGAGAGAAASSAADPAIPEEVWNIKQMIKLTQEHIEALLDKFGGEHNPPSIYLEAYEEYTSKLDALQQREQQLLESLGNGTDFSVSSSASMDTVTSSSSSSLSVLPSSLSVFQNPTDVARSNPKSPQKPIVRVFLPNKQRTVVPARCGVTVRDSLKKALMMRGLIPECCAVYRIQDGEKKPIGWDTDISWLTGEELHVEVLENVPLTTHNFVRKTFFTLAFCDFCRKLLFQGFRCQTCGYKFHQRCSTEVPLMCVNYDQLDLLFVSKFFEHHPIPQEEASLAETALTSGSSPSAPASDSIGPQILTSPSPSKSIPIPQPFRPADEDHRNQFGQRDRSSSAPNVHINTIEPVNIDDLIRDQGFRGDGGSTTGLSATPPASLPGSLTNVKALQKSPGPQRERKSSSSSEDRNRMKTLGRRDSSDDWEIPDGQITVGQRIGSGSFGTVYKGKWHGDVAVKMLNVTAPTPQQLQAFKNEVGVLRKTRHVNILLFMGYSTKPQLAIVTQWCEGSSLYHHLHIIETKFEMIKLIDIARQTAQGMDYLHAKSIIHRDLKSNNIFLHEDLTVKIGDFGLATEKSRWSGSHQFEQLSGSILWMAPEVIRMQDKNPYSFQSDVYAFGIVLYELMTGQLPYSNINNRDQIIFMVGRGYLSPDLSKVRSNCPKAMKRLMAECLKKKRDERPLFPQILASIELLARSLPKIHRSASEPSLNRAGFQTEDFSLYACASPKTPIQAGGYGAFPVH
Sequence of B-Raf (P15056 whole entry): as the sequence (P15056 whole entry V600E) above, with E600V counted along it
Sequence of PI3Kγ (P48736 whole entry): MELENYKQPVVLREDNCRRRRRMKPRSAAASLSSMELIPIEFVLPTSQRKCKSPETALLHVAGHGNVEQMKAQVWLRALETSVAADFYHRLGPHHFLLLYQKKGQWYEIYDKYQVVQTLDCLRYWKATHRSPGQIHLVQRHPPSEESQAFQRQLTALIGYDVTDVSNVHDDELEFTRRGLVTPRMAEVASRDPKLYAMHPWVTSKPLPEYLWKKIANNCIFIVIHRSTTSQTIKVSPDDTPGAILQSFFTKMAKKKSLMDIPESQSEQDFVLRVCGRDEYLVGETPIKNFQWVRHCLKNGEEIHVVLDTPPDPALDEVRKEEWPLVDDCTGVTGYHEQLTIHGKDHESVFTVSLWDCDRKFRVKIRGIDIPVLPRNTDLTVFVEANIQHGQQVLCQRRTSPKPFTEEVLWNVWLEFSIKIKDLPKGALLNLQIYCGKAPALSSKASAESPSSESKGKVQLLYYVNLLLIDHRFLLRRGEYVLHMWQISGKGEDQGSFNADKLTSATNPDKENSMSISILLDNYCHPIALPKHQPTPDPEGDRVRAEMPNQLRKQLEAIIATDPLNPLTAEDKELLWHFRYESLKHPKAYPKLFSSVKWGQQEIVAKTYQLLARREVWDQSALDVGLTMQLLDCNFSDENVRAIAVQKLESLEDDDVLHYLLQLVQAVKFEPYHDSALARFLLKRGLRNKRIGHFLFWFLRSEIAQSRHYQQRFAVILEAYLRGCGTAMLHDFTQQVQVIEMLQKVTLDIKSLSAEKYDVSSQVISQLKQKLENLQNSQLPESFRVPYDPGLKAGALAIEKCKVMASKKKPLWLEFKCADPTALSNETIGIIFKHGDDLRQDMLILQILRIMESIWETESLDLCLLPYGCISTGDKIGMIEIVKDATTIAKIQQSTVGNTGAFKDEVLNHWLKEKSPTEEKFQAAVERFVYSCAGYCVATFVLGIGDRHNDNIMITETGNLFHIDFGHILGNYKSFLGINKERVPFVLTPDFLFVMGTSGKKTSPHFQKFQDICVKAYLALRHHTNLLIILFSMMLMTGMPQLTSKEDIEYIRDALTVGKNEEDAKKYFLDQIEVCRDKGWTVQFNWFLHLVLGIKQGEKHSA

For the compound `CCCS(=O)(=O)Nc1ccc(F)c(C(=O)c2c[nH]c3ncc(-c4ccc(Cl)cc4)cc23)c1F` [P-1167 Form 2, Propane-1-sulfonic acid {3-[5-(4-chloro-phenyl)-1H-pyrrolo[2,3-b]pyridine-3-carbonyl]-2,4-difluoro-phenyl}-amide], the “relative stability of polymorphic forms” value in data set [1] is “more stable polymorph”.

Consider `CCCS(=O)(=O)Nc1ccc(F)c(C(=O)c2c[nH]c3ncc(-c4cccc(S(=O)(=O)NC)c4)cc23)c1F` [P-2170, 3-{3-[2,6-Difluoro-3-(propane-1-sulfonylamino)-benzoyl]-1H-pyrrolo[2,3-b]pyridin-5-yl}-N-methyl-benzenesulfonamide], for which the IC50 on PI3Kδ, against Kdr, on PI3Kα, on B-Raf V600E, on Kit and on Src was not above 10 µM each time. Moreover, at Fms, the IC50 is not above 10 µM.

Regarding `CCCS(=O)(=O)Nc1ccc(F)c(C(=O)c2c[nH]c3ncc(-c4cncc(S(C)(=O)=O)c4)cc23)c1F` [P-2188], the IC50 on PI3Kδ, on Kdr, on PI3Kα, on B-Raf V600E, at PI3Kγ and at B-Raf was not above 10 µM in each case.

Regarding `CCCS(=O)(=O)Nc1ccc(F)c(C(=O)c2c[nH]c3ncc(-c4ccc(C(N)=O)nc4)cc23)c1F` [P-2220, 5-{3-[2,6-Difluoro-3-(propane-1-sulfonylamino)-benzoyl]-1H-pyrrolo[2,3-b]pyridin-5-yl}-pyridine-2-carboxylic acid amide], the IC50 at Kdr, against MAP4K4, at PI3Kα, on B-Raf V600E, against Kit and at A-Raf was not above 10 µM each time. Moreover, the IC50 against C-Raf, on Src, against PI3Kγ and on B-Raf was not above 10 µM each time.

Turning to `CCCS(=O)(=O)Nc1cccc(C(=O)c2c[nH]c3ncc(-c4cnc(OC)nc4)cc23)c1F` [P-2407, Propane-1-sulfonic acid {2-fluoro-3-[5-(2-methoxy-pyrimidin-5-yl)-1H-pyrrolo[2,3-b]pyridine-3-carbonyl]-phenyl}-amide], the 50% inhibitory concentration (IC50) at MAP4K4, against TrkA, against PI3Kα, at B-Raf V600E, against A-Raf and against C-Raf was not above 10 µM each time. The IC50 at PI3Kγ and on B-Raf was not above 10 µM throughout.

As to `CCCS(=O)(=O)Nc1ccc(F)c(C(=O)c2c[nH]c3ncc(-c4ccc(Cl)cc4)cc23)c1F` [arginine complex of P-1167, propane-1-sulfonic acid {3-[5-(4-chloro-phenyl)-1H-pyrrolo[2,3-b]pyridine-3-carbonyl]-2,4-difluoro-phenyl}-amide], the “UV absorbance in SIF (dissolution)” value in data set [2] was “substantially higher absorbance in SIF than the free base”. The “time of maximum absorbance in SGF” value in [3] is given as “approximately 200 minutes”. In data set [3] (versus form 2 polymorph free base), the “maximum UV absorbance in SGF (dissolution)” value is reported as “substantially greater than the free base”.
